Numbered stars: 1 amine (or outer) side, 2 acyl side, 3 side chain; on linkers, the order of the positions; unused ones are H or OH. Square brackets hold non-standard residues; d marks the D form. Peptide text beside a SMILES is read from it. X1 = O=C([C@H]1CCCN1C[C@@H](O)[C@@H](Cc1ccccc1)N[*:1])[*:2]

For one assay, the target named is T1, Human immunodeficiency virus type 1 protease (Human immunodeficiency virus 1, UniProt Q72874). The experiment in a line: In vitro inhibition of HIV protease, using a peptide hydrolysis assay.
As to `CC(C)(C)OC(=O)N[C@@H](Cc1ccccc1)[C@H](O)CNC(C(=O)N[C@H]1c2ccccc2C[C@H]1O)C(O)c1ccccc1` (stereo in doubt; 12), the IC50 turned out to be 8.5 µM.
On the same count and under the same terms, then `CC(C)(C)OC(=O)N[C@@H](Cc1ccccc1)C(O)CNC(Cc1ccccc1)C(=O)NC(CO)c1ccccc1` (stereo not given in full), with 38 µM; and `CC(C)(C)OC(=O)N[C@@H](Cc1ccccc1)[C@@H](O)CN[C@H](Cc1ccccc1)C(=O)N[C@H]1c2ccccc2C[C@H]1O`, with 23.4 µM; and `CC(C)(C)OC(=O)N[C@@H](Cc1ccccc1)[C@@H](O)CN[C@@H](Cc1ccccc1)C(=O)N[C@H]1c2ccccc2C[C@H]1O`, with 4.7 µM.
As to `CC(C)(C)OC(=O)N[C@@H](Cc1ccccc1)[C@H](O)CN[C@@H](Cc1ccccc1)C(=O)N[C@H]1c2ccccc2C[C@H]1O`, half-maximal inhibition (IC50) required 0.252 µM.
With `CC(C)(C)OC(=O)N[C@@H](Cc1ccccc1)[C@H](O)CN[C@H](Cc1ccccc1)C(=O)N[C@H]1c2ccccc2C[C@H]1O`, the IC50 is 7.3 µM.
For the molecule `CC(C)(C)OC(=O)N[C@@H](Cc1ccccc1)[C@H](O)CNC(C(=O)N[C@H]1c2ccccc2C[C@H]1O)C(O)c1ccccc1` (stereo in doubt; 13), the IC50 is 8.6 µM.

For another assay, the target named is T1, Human immunodeficiency virus type 1 protease. Description: In vitro inhibition of HIV-Protease, using a peptide hydrolysis assay.
As to `CC(C)(C)NC(=O)[C@@H]1C[C@@H]2CCCC[C@@H]2CN1C[C@@H](O)[C@H](Cc1ccccc1)NC(=O)OC(C)(C)C`, the IC50 was over 3 µM.
As to `NC(=O)CC(NC(=O)c1ccc2ccccc2n1)C(=O)N[C@@H](Cc1ccccc1)[C@H](O)CN[C@@H](Cc1ccccc1)C(=O)NC1c2ccccc2C[C@H]1O` (stereo not given in full), the IC50 was 0.0054 µM.
The same measure, in the same setting: then `CC(C)(C)OC(=O)NC(CC(N)=O)C(=O)N[C@@H](Cc1ccccc1)C(O)CN[C@@H](Cc1ccccc1)C(=O)NC1c2ccccc2C[C@H]1O` (stereo not given in full), with 0.295 µM; and `N[C@@H](Cc1ccccc1)C(O)CN[C@@H](Cc1ccccc1)C(=O)NC1c2ccccc2C[C@H]1O` (stereo not given in full), with 63 µM.
In the case of `CC(C)(C)OC(=O)N[C@@H](Cc1ccccc1)[C@H](O)CN1C[C@H]2CCCC[C@H]2C[C@H]1C(=O)NC1c2ccccc2CC1O` (stereo not given in full), the IC50 was over 3 µM.
The molecule `CC(C)(C)NC(=O)C(Cc1ccccc1)NCC(O)[C@H](Cc1ccccc1)NC(=O)OC(C)(C)C` (stereo not given in full) displayed an IC50 of over 100 µM.
For the molecule `NC(=O)CC(N)C(=O)N[C@@H](Cc1ccccc1)[C@H](O)CN[C@@H](Cc1ccccc1)C(=O)NC1c2ccccc2C[C@H]1O` (stereo not given in full), 1.1 µM corresponded to half-maximal inhibition (IC50).
Molecule `CC[C@H](C)[C@H](NC(=O)[C@H]1CCCN1C[C@@H](O)[C@@H](Cc1ccccc1)NC(=O)[C@H](CC(N)=O)NC(=O)[C@H](CC(C)C)NC(=O)[C@@H](N)CO)C(=O)N[C@H](C(=O)OC)C(C)C` (H-SLN[X1]IV-OMe) gave a Ki of 0.00024 µM.

The IC50 is the concentration needed to halve the response being measured. Low readings indicate greater potency, high ones weaker potency. What is called Ki is a measure of affinity in units of concentration, obtained from inhibition or displacement.

(Values after ChEMBL document CHEMBL1125473, “A series of potent HIV-1 protease inhibitors containing a hydroxyethyl secondary amine transition state isostere: synthesis, enzyme inhibition, and antiviral activity” (J Med Chem, 1992).)
